Source: US10961274B2, “Self-assembling peptides comprising non-ionic polar amino acids for anti-adhesion” (3-D Matrix, Ltd., priority 2015, dated 2021)
Peptide text beside a SMILES is read from it.

Columns and labels:
[1] = Autoclave stability/sterilization, mass spectrometry before and after autoclave; type: physicochemical; details: 121° C. for 25 min, high pressure saturated steam; N-terminus and C-terminus not protected
Description: Sterilization is a very important step in the manufacturing process for all biomaterials, including the self-assembling peptide solutions.

[2] = Dissolution in deionized water and visual appearance of peptide solution; type: physicochemical
Description: ST14 and T14 were tested for dissolution in deionized water and appearance in solution at various concentrations.

[3] = pH of peptide solutions in deionized water; type: physicochemical
Description: The pH of the peptides in deionized water to provide a peptide solution were measured at various concentrations. […] ST14 and T14 were tested. The recorded pH values ranged from about 1.9 to about 2.5.

[4] = Atomic Force Microscopy (AFM) morphological study of peptide nano structures; type: physicochemical; details: 100 μM peptide solution on mica, air-dried, tapping mode
Description: Atomic Force Microscopy (AFM) images of ST14 and T14 peptides were investigated to visualize their nano structures. […] Each sample was left on the mica for about 30 seconds (s) and then rinsed with aliquots of 100 μl of Milli-Q (ultrapure) water to remove unattached peptides. The sample on the mica surface was then air-dried for AFM observation. AFM was performed with Asylum-1 MFP-3D AFM System (Asylum Research, Santa Barbara, Calif.) using a tapping mode. The images utilized an Olympus Si tip (AC240FS). The cantilever's free resonance frequency was 70 kHz.

[5] = Congo Red assay of gel formation in PBS buffer (pH 7.4); type: physicochemical
Description: A Congo Red assay was performed to determine gel formation of peptide solutions in a PBS buffer solution (pH 7.4). 100 μl of each gel at varying concentrations were plated on a glass slide. After 30 seconds, 500 μl of a 1% Congo Red solution in PBS buffer (pH 7.4) was added around and on top of each of the gel aliquots and then the excess Congo Red solution was wiped off prior to examination.
ST14 and T14 were plated at varying concentrations of 0.5%, 1.0%, 1.5%, 2.0%, 2.5% and 5.0%. Visualization of gel formation determined the success or failure of gelation at each concentration.

[6] = Rheological properties at various concentrations (stress sweep, rheometer); type: physicochemical; details: 37° C.; for Loss Modulus (G′) / Storage Modulus (G′): at 1 Pa of oscillation stress; for Loss Modulus (G′) / Storage Modulus (G′) / Max. Viscosity (max η′) / Yield Stress: 10 rad/s; for Max. Viscosity (max η′) / Yield Stress: stress sweep
Description: The rheological properties of the ST14 were evaluated at various concentrations using a rheometer (AR500, TA Instruments) with 40 mm plates. Peptide solution (700 μL) was placed on the rheometer plate and excess solution was gently removed by Kimwipes; measurements were performed after 2 minutes of relaxation time at 37° C. The storage modulus, loss modulus, and viscosity (η′) were measured at 37° C. with the plates placed at a measuring geometry gap of 300 μm, and stress sweep tests were performed at 0.1 Pa˜1000 Pa of oscillation stress with angular frequency at 10 rad/s.

[7] = test system: C57 BL/6 Mouse Mesenchymal Stem Cells (mMSCs); test: Cell viability (cytotoxicity) assay in hydrogel drop cultures; type: cell-based; details: 5 million cells/ml, 10% sucrose, peptide concentration over 0.75% (tested 0.50% to 1.5%)
Description: A cell viability (cytotoxicity) assay was performed to measure the ability of ST14 o support the viability of C57 BL/6 Mouse Mesenchymal Stem Cells (mMSCs)—a frequently-used cell line in hydrogel tissue culture systems. The hydrogel was prepared at a concentration of 2.5% and then diluted to concentrations of 1.5%, 1.25%, 1.0%, 0.75%, and 0.50% with sucrose, so that the final concentration of sucrose was 10%. Cells were washed and re-suspended in 10% sucrose to a final concentration of 5 million cells/ml. Cells were centrifuged and the supernatant was removed. The cells were re-suspended in each of the concentrations of hydrogels in 10% sucrose. The protocol was then followed for plating drop cultures and subsequent isolation as described in the PuraMatrix® Guidelines for Use (BD/Corning website).

[8] = Effect of DMEM treatment on rheological properties (storage modulus); type: physicochemical; details: 1% peptide; DMEM (pH 7.4) for 2 minutes; 1 Pa, 10 rad/s; 37° C.
Description: The effects of Dulbecco's modified Eagle's medium (DMEM) (pH 7.4) on the rheological properties of ST14 were evaluated on a rheometer (AR500, TA Instruments) with 40 mm plates. DMEM is a cell culture medium that contains 6.4 g/L of NaCl, 3.4 g/L NaHCO3 (sodium bicarbonate), minor amounts of other salts, various amino acids, and 4.5 g/L of glucose. The pH of DMEM is 7.2±0.2 and the osmolality is 335±30 mOsm/Kg H2O; both measurements are close to human physiological fluids such as blood. Peptide solutions (1%) were kept in 4° C. for at least 48 hours before testing. To perform the experiment, 1 mL of peptide solution was gently pipetted and placed on the plate of the rheometer. 2 mL of DMEM solution was gently added around the peptide solution. The peptide solution was treated with DMEM for two minutes, then the media was removed, and the plates were placed at a measuring geometry gap at around 450 μm. Measurements were performed at 37° C. after 2 min of relaxation time. Frequency tests were performed from 1 rad/s to 100 rad/s at 1 Pa of oscillation stress.
The rheological properties of ST14 (1%) were compared before and after DMEM treatment for 2 minutes in FIG. 14. […]

[9] = concentration 0.5% in deionized water
[10] = concentration 1.0% in deionized water
[11] = concentration 1.5% in deionized water
[12] = concentration 2.0% in deionized water
[13] = concentration 2.5% in deionized water

CC(O)C(N)C(=O)NC(C(=O)NC(C(=O)NC(C(=O)NC(C(=O)NC(C(=O)NC(C(=O)NC(C(=O)NC(C(=O)NC(C(=O)NC(C(=O)NC(C(=O)NC(C(=O)NC(C(=O)O)C(C)O)C(C)O)C(C)O)C(C)O)C(C)O)C(C)O)C(C)O)C(C)O)C(C)O)C(C)O)C(C)O)C(C)O)C(C)O (stereo not drawn) [Peptide T14]
degradation during autoclave treatment (mass spec) [1]: did not degrade | appearance of solution in deionized water ([2]; 1 percent w/v to 5 percent w/v): translucent | thickness of solution in deionized water ([2]; 5 percent w/v): formed a thick solution | pH [3, 9]: 2.5 | pH [3, 10]: 2.3 | pH [3, 11]: 2.2 | pH [3, 12]: 2.1 | pH [3, 13]: 2.0 | AFM morphology (nano structure) [4]: Aggregates have been detected | gel formation (Congo Red) ([5]; below 1%): did not form a gel

CC(O)C(NC(=O)C(CO)NC(=O)C(NC(=O)C(CO)NC(=O)C(NC(=O)C(CO)NC(=O)C(NC(=O)C(CO)NC(=O)C(NC(=O)C(CO)NC(=O)C(NC(=O)C(CO)NC(=O)C(NC(=O)C(N)CO)C(C)O)C(C)O)C(C)O)C(C)O)C(C)O)C(C)O)C(=O)O (stereo not drawn) [ST14] (H-STSTSTSTSTSTST-OH; configuration not given here)
Loss Modulus (G′) ([6]; Concentration 1): 11.4 Pa | Storage Modulus (G′) ([6]; Concentration 1): 67 Pa | Max. Viscosity (max η′) ([6]; Concentration 1): 1.2 Pa-s | Yield Stress ([6]; Concentration 1): 5.0 Pa | Loss Modulus (G′) ([6]; Concentration 1.5): 9.8 Pa | Storage Modulus (G′) ([6]; Concentration 1.5): 94 Pa | Max. Viscosity (max η′) ([6]; Concentration 1.5): 1.5 Pa-s | Yield Stress ([6]; Concentration 1.5): 7.9 Pa | Loss Modulus (G′) ([6]; Concentration 2): 17.3 Pa | Storage Modulus (G′) ([6]; Concentration 2): 136 Pa | Max. Viscosity (max η′) ([6]; Concentration 2): 2.0 Pa-s | Yield Stress ([6]; Concentration 2): 10.0 Pa | Loss Modulus (G′) ([6]; Concentration 2.5): 17.1 Pa | Storage Modulus (G′) ([6]; Concentration 2.5): 167 Pa | Max. Viscosity (max η′) ([6]; Concentration 2.5): 2.2 Pa-s | Yield Stress ([6]; Concentration 2.5): 15.9 Pa | storage modulus, yield stress, and max. viscosity versus concentration ([6]; concentrations 1 to 2.5): increased with increasing concentration | degradation during autoclave treatment (mass spec) [1]: did not degrade | appearance of solution in deionized water ([2]; 1 percent w/v to 5 percent w/v): translucent | thickness of solution in deionized water ([2]; 1 percent w/v to 5 percent w/v): formed thick solutions | pH [3, 9]: 2.5 | pH [3, 10]: 2.2 | pH [3, 11]: 2.1 | pH [3, 12]: 2.0 | pH [3, 13]: 1.9 | cell viability [7]: significantly decreased | fold increase of storage moduli after DMEM treatment [8]: 6.9 fold | AFM morphology (nano structure) [4]: forms self-assembled nanofibers | gel formation (Congo Red) ([5]; 0.5%): did not form a gel
